Test results taken from patent publication US20200405687A1, “METHODS FOR THE TREATMENT OF INFECTION” (Corbus Pharmaceuticals, Inc., priority 2016, published 2020).

Key:
Pseudomonas aeruginosa [1] = test: Pseudomonas aeruginosa agarose bead lung infection in WT C57BL/6J mice (Example 1); type: in vivo
Protocol: Ajulemic acid (AJA) was tested in mice inoculated with Pseudomonas aeruginosa to determine its effect on treatment of infection, including the ability to promote bacterial clearance. Mice (WT, C57BL/6J) were inoculated with Pseudomonas aeruginosa agarose beads in the lungs and then treated twice daily with oral doses of ajulemic acid at 1 mg/kg and 5 mg/kg. Ajulemic acid was then administered by gavage at 1 mg/kg or 5 mg/kg dose BID in 2% methylcellulose for 10 days starting 24 hours after establishing chronic Pseudomonas aeruginosa infection. WT animals in this study were followed daily for clinical score and weights for 10 days. At Day 10, animals were euthanized and evaluated for bacteria load (colony forming units, cfus), total bronchoalveolar lavage (BAL), white blood cell counts (WBCs), and differential cell counts.
The study was conducted with 40 wild type female C57BL/6J mice. Each group of mice was inoculated with 10^5 colony forming units (CFUs) of Pseudomonas aeruginosa (PAM 5715, a CF clinical isolate). One day post infection, mice were given either 2% methylcellulose, 2% methylcellulose+1 mg/kg ajulemic acid, or 2% methylcellulose+5 mg/kg ajulemic acid BID. Animals were followed for 10 days. At day 10, animals were euthanized for BAL CFUs, differentials, total white blood cell count with fluid, and pellet saved for future studies.
Treatment and control groups include the following Pseudomonas aeruginosa infected controls treated with 2% methylcellulose, Pseudomonas aeruginosa infected animals treated with 1 mg/kg BID AJA in 2% methylcellulose, Pseudomonas aeruginosa infected animals treated with 5 mg/kg BID AJA in 2% methylcellulose, and untreated baseline controls.

Pseudomonas aeruginosa [2] = test: Pseudomonas aeruginosa agarose bead lung infection in Cftr KO and WT mice (Example 2); type: in vivo
Protocol: A limited number of both WT (C57BL/6J, n=5) and Cftr KO (congenic-homologous, DelF508-FABP gut corrected animals, n=5) were evaluated for safety, toxicity, and efficacy upon oral dosing of 5 mg/kg ajulemic acid BID. As controls, PA infected WT C57BL/6J and Cftr KO mice were given the 2% methylcellulose vehicle. Cftr KO and WT animals in this study were followed daily for clinical score and weights for 10 days. At Day 10, animals were euthanized and evaluated for bacteria load (colony forming units, cfus), total bronchoalveolar lavage (BAL) white blood cell counts (WBCs), and differential cell counts.
Mice were inoculated with Pseudomonas aeruginosa (PA) agaroses beads in the lungs and then treated twice daily with oral doses of ajulemic acid at 1 mg/kg and 5 mg/kg. Ajulemic acid was then administered by gavage at 1 mg/kg or 5 mg/kg dose BID in 2% methylcellulose for 10 days starting 24 hours after establishing chronic Pseudomonas aeruginosa (PA) infection. The study included 4 groups:
1) C57BL/6J+vehicle (WT DIL, n=5),
2) C57BL/6J+5 mg/kg ajulemic acid BID (WT AJ, n=5),
3) Cftr KO+vehicle (CF DIL, n=5), and
4) Cftr KO+5 mg/kg ajulemic acid BID (CF AJ, n=5),
and all animals were chronically infected with Pseudomonas aeruginosa using a standard agarose bead model.

[3] = Phase 2 study in subjects having cystic fibrosis, acute pulmonary exacerbations and safety (Example 4); type: in vivo, human
Protocol: An international, multi-center, double-blinded, randomized, placebo-controlled Phase 2 study was performed in subjects having cystic fibrosis. The primary objective of the study was to test safety and tolerability of ajulemic acid in adults with cystic fibrosis who had forced expiratory volume in 1 second (FEV1) percent predicted at least 40% predicted, without regard to their CFTR mutation, infecting pathogen, or baseline treatment. Events of special interest included acute exacerbations requiring intravenous antibiotic treatment or treatment with new antibiotics.
Eighty-five subjects on stable standard-of-care medications were dosed with ajulemic acid at 21 cystic fibrosis centers in the U.S. and Europe and treated with ajulemic acid daily for a period of 84 days, with a follow-up period of 28 days. During the first part of the study (weeks 1-4) subjects were randomized to the following treatment groups: placebo (n=35), 1 mg/day ajulemic acid (n=26) or 5 mg/day ajulemic acid (n=24). During the second part of the study (weeks 5-13), subjects given ajulemic acid in the first part of the study were re-randomized to ajulemic acid 20 mg once per day (n=31) or ajulemic acid 20 mg twice a day (n=30) with 11 subjects from the placebo group also being randomized to the ajulemic acid arms. The last part of the study was a 28 day follow up period post treatment.

[4] = 1 mg/day, 5 mg/day, or 20 mg/day, respective treatment periods
[5] = across doses, compared to placebo

CCCCCCC(C)(C)c1cc(O)c2c(c1)OC(C)(C)[C@@H]1CC=C(C(=O)O)C[C@@H]21 [ajulemic acid, (6aR,10aR)-1-hydroxy-6,6-dimethyl-3-(2-methyl-2-octanyl)-6a,7,10,10a-tetrahydro-6H-benzo[c]chromene-9-carboxylic acid]
white blood cell response (Pseudomonas aeruginosa [1]; 1 mg/kg and 5 mg/kg BID oral, day 3, relative to controls infected or not infected): elevated | weight profiles (body weight maintenance) (Pseudomonas aeruginosa [1]; 1 mg/kg or 5 mg/kg BID, 10 days): no real adverse effect | bacterial load of Pseudomonas aeruginosa (bacterial CFUs in the lungs) (Pseudomonas aeruginosa [1]; 5 mg/kg BID oral, day 10): effective at decreasing the overall number of bacterial CFUs in the lungs | treatment of infection compared with vehicle (Pseudomonas aeruginosa [1]; WT C57BL/6J mice): more efficient at treating infection than vehicle | tolerability (Pseudomonas aeruginosa [1]; WT C57BL/6J mice, 1 or 5 mg/kg BID oral, 10 days): well tolerated | white blood cells (Pseudomonas aeruginosa [1]; all groups, day 10, compared to controls): normalized | levels of neutrophils (Pseudomonas aeruginosa [1]; all treatment groups relative to the non-treated control): elevated levels of neutrophils | levels of lymphocytes or eosinophils (Pseudomonas aeruginosa [1]; any of the groups): no significant difference | alveolar macrophages (Pseudomonas aeruginosa [1]; treatment groups, by day 10): increase in alveolar macrophages | neutrophils (Pseudomonas aeruginosa [1]; treatment groups, by day 10): decreased neutrophils | Survival Rate (Day 10) (Pseudomonas aeruginosa [2]; Cftr KO (CF) mice, 5 mg/kg BID oral, n=5, vehicle 3/5, 5 mg/kg): 5/5 | BAL WBC counts (Pseudomonas aeruginosa [2]; Cftr KO mice, 5 mg/kg BID): decreased BAL WBC counts | number of alveolar macrophages (Pseudomonas aeruginosa [2]; Cftr KO mice, 5 mg/kg BID): increase the number of alveolar macrophages | weight loss (Pseudomonas aeruginosa [2]; Cftr KO mice, 5 mg/kg BID, P<0.01): decreased weight loss | numbers of neutrophils (Pseudomonas aeruginosa [2]; Cftr KO mice, 5 mg/kg BID, P<0.05): decreased numbers of neutrophils | ability to resolve pulmonary infection as assessed by lung CFUs (Pseudomonas aeruginosa [2]; Cftr KO mice, 5 mg/kg BID, Pvariance=0.002): improved the ability of the animals to resolve pulmonary infection | Acute pulmonary exacerbations requiring a new antibiotic, Subjects ([3]; 1 mg, N = 22, Weeks 1-4, placebo 6 (25.0)): 3 (13.6) n/N at risk (%) | Acute pulmonary exacerbations requiring intravenous antibiotics, Subjects ([3]; 1 mg, Weeks 1-4, placebo 3 (8.6)): 1 (3.8) n (% at risk) | acute pulmonary exacerbations requiring any new antibiotic [3, 4]: Reductions were also observed | acute pulmonary exacerbations requiring intravenous antibiotics [3, 4]: Reductions were also observed | Acute pulmonary exacerbations requiring a new antibiotic, Subjects ([3]; 5 mg, N = 23, Weeks 1-4, placebo 6 (25.0)): 3 (13.0) n/N at risk (%) | Acute pulmonary exacerbations requiring intravenous antibiotics, Subjects ([3]; 5 mg, Weeks 1-4, placebo 3 (8.6)): 1 (4.2) n (% at risk) | Acute pulmonary exacerbations requiring a new antibiotic, Subjects ([3]; 20 mg BID, N = 22, Post-treatment, placebo 2 (22.2)): 2 (9.1) n/N at risk (%) | Acute pulmonary exacerbations requiring a new antibiotic, Subjects ([3]; 20 mg BID, N = 24, Weeks 5-12, placebo 9 (50.0)): 2 (8.3) n/N at risk (%) | Acute pulmonary exacerbations requiring intravenous antibiotics, Subjects ([3]; 20 mg BID, Weeks 5-12, placebo 3 (16.7)): 1 (3.3) n (% at risk) | reduction in the 48 week rate of acute pulmonary exacerbations requiring any new antibiotic ([3]; 20 mg BID, compared to placebo): 82% | reduction in the 48 week rate of acute pulmonary exacerbations requiring intravenous antibiotics ([3]; 20 mg BID, compared to placebo): 75% | Acute pulmonary exacerbations requiring a new antibiotic, Subjects ([3]; 20 mg, N = 20, Post-treatment, placebo 2 (22.2)): 6 (30.0) n/N at risk (%) | Acute pulmonary exacerbations requiring a new antibiotic, Subjects ([3]; 20 mg, N = 25, Weeks 5-12, placebo 9 (50.0)): 4 (16.0) n/N at risk (%) | Acute pulmonary exacerbations requiring intravenous antibiotics, Subjects ([3]; 20 mg, Weeks 5-12, placebo 3 (16.7)): 3 (6.5) n (% at risk) | subjects withdrawn due to adverse events ([3]; 85 subjects dosed, 2 on placebo): 3 subjects | occurrence of acute pulmonary exacerbations requiring treatment with any new antibiotic [3, 5]: dose-dependent decrease | occurrence of acute pulmonary exacerbations requiring treatment with intravenous antibiotics [3, 5]: dose-dependent decrease | related serious or severe treatment emergent adverse events ([3]; adults with cystic fibrosis, 1-20 mg BID, 84 days): No related serious or severe treatment emergent adverse events
